According to patent US11357817B2, “Immunoproteasome inhibitor” (The Regents of the University of California, priority 2017, dated 2022):

What was measured:
[1] = target: T1, c20S (Homo sapiens, UniProt P20618+P28074); test: Calculation of inhibition constants (inactivation kinetics), c20S; type: biochemical
T1 construct: purchased Boston Biochem
Procedure: (§1) The rate of AMC release was calculated in the presence of serial dilution of each inhibitor. The rate of product formation were calculated at 30 min intervals for 4 hours, and normalized to activity DMSO control to calculate inactivation curves. Kobs values for each inhibitor concentration were calculated from inactivation curves, and inhibition constants KI and kinact were calculated by non-linear regression of Kobs and inhibitor concentration using GraphPad Prism 6 software.

[2] = test system: P. falciparum Dd2; test: P. falciparum Dd2 asexual blood stage SYBR Green I compound sensitivity assay; type: cell-based, Plasmodium falciparum; details: Plasmodium falciparum, DD2, 72 h, asexual blood stage, 72 hour SYBR green assay
Procedure: P. falciparum Dd2 strain parasites were cultured under standard conditions (31), using RPMI media supplemented with 0.05 mg/ml gentamycin, 0.014 mg/mL hypoxanthine (prepared fresh), 38.4 mM HEPES, 0.2% Sodium Bicarbonate, 3.4 mM Sodium Hydroxide, 0.05% O+ Human Serum (Denatured at […] for 40 min and From Interstate Blood Bank, Memphis, Tenn.) and 0.0025% Albumax). Human O+ whole blood was obtained from TSRI blood bank (La Jolla, Calif.). Leukocyte-free erythrocytes are stored at 50% hematocrit in RPMI-1640 screening media (as above, but without O+ human serum and with 2× albumax concentration) at 4° C. for one to three weeks before experimental use. Cultures were monitored every one to two days via Giemsa-stained thin smears.
Compound susceptibility was measured using the malaria SYBR Green I-based fluorescence assay (32). Asynchronous P. falciparum parasites (Dd2 strain) were cultured in standard conditions before being plated for the assays. Each compound was tested over 72 hours in technical duplicates on a twelve-point concentration curve prepared by three-fold dilution from 6.7 μM to 0.11 nM. At least three independent experiments were carried out for IC50 determination. Artemisinin and chloroquine were used as controls. IC50 values were obtained using normalized fluorescence intensity from SYBR green I and analyzed via non-linear variable slope four-parameter regression curve-fitting model in Prism 6 (GraphPad Software Inc).

[3] = test system: 20S Plasmodium proteasome (Pf20S) β2 subunit; test: Proteasome activity assay, Pf20S β2 (z-LRR-AMC); type: biochemical; details: 450 nM compound; proteasome not named
Procedure: (§2) Asynchronous P. falciparum cultures were grown up to 4-5% parasitemia, in 300 mL of RPMI media at 5.0% hematocrit. […] The PBS was removed and lysis buffer (0.15% saponin in PBS) was added on ice in 10 pellet volumes. Upon lysis of red blood cells, indicated by a clear red supernatant, the lysed cultures were centrifuged at 3200×g for 12 minutes at 4° C. The supernatant was removed by aspiration and the cells were washed twice using chilled PBS in microcentrifuge tubes. The cell pellets were then incubated on ice for 1 hour with occasional vortexing in a buffer consisting of 20 mM Tris-HCl pH 7.5, 5 mM MgCl2, 1 mM DTT, 100 μM E-64 and 1 mM AEBSF. This sample was then subjected to 3 rounds of freezing (−80° C.) and thawing (37° C.) and centrifugation at 6000×g for 10 min. The supernatant containing soluble P. falciparum protein was quantified by the BCA method (Pierce).
(§3) P. falciparum proteasome was enriched by two-chromatographic steps reported previously (10). […] The AMC fluorophore release was monitored at Ex 340/Em 465 nm at 24° C. using a Synergy HTX multi-mode reader (Biotek). […] Proteins were eluted using 20 mM Tris-HCl pH 7.5, 100 mM NaCl, 10% glycerol and 1 mL fractions were collected, evaluated for protease activity and pooled. […]

[4] = test system: 20S Plasmodium proteasome (Pf20S) β1 subunit; test: Proteasome activity assay, Pf20S β1 (z-LLE-AMC); type: biochemical, Plasmodium falciparum; details: 450 nM compound; proteasome not named
Procedure: as §2, §3

[5] = target: Pf20S (Plasmodium falciparum, UniProt A0A5K1K7U1+Q8IJT1); test: Calculation of inhibition constants (inactivation kinetics), Pf20S; type: biochemical
Procedure: as §1

Pf20S, sequence (A0A5K1K7U1 entry or part of it): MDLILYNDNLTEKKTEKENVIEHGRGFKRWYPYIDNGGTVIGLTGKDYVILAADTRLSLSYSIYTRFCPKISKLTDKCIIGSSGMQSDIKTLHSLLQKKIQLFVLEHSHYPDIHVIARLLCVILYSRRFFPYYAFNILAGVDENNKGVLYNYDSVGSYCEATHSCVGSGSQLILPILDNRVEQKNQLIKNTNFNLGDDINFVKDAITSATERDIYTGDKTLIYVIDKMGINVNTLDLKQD
Pf20S, sequence (Q8IJT1 entry or part of it): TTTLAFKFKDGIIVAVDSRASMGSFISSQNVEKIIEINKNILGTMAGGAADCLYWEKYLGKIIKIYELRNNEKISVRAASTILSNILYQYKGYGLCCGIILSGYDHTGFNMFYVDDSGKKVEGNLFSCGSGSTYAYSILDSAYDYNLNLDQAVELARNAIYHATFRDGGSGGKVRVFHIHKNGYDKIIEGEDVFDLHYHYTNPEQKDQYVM

What does the source list for `CCCCCC(=O)N[C@@H](C(=O)N[C@@H](CCCC)C(=O)N[C@@H](CC(C)C)C(=O)[C@@]1(C)CO1)C(C)C` [Analog 18, (S)-2-((R)-2-hexanamido-3-methylbutanamido)-N—((S)-4-methyl-1-((R)-2-methyloxiran-2-yl)-1-oxopentan-2-yl)hexanamide]?
Ki ([1]; c20S): 39200 nM; loss in potency to the human c20S proteasome ([1]; kinact/Ki, 18 versus 1): 100 fold; IC50 [2]: 3.27 ± 0.232 nM; β2 activity reduced [3]: 9%; β1 activity reduced [4]: 6%; Ki ([5]; Pf20S): 372 nM; reduction in potency to the Pf20S proteasome ([5]; kinact/Ki, 18 versus 1): 10 fold
